Measurements reported in PubChem BioAssay (NCI).
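1) Cells in 96-well plates. 2) Compound, 48 h, 5 concentrations. 3) Linear interpolation between surrounding doses. 4) Unreached endpoint = highest concentration. At the TGI there is no net growth.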 *1 amine or outer side, *2 acyl side, *3 side chain or, on linkers, in order; H or OH if unused. Where a SMILES comes first, the peptide text is derived from it. [ ]: non-standard residue; d: D form. The star is where a group is joined. X31 = CC(=O)N(C)SCC(N[*:1])C(=O)[*:2]; Fmoc = O=C(OCC1c2ccccc2-c2ccccc21)*; For = O=C*

Experiments:
Experiment in all cases: NCI anticancer screen, dose series, 48 h
NCI-H23 lung = tested on: NCI-H23 lung
SF-295 CNS = tested on: SF-295 CNS
OVCAR-8 ovarian = tested on: OVCAR-8 ovarian
UACC-62 melanoma = tested on: UACC-62 melanoma
OVCAR-5 ovarian = tested on: OVCAR-5 ovarian
CCRF-CEM leukemia = tested on: CCRF-CEM leukemia
SNB-75 CNS = tested on: SNB-75 CNS
NCI-H460 lung = tested on: NCI-H460 lung
UO-31 renal = tested on: UO-31 renal
SN12C renal = tested on: SN12C renal
NCI-H522 lung = tested on: NCI-H522 lung
SF-268 CNS = tested on: SF-268 CNS
ACHN renal = tested on: ACHN renal
HCT-116 colon = tested on: HCT-116 colon
MCF7 breast = tested on: MCF7 breast

SMILES | TGI (NCI-H23 lung) [µM] | TGI (SF-295 CNS) [µM] | TGI (OVCAR-8 ovarian) [µM] | TGI (UACC-62 melanoma) [µM] | TGI (OVCAR-5 ovarian) [µM] | TGI (CCRF-CEM leukemia) [µM] | TGI (SNB-75 CNS) [µM] | TGI (NCI-H460 lung) [µM] | TGI (UO-31 renal) [µM] | TGI (SN12C renal) [µM] | TGI (NCI-H522 lung) [µM] | TGI (SF-268 CNS) [µM] | TGI (ACHN renal) [µM] | TGI (HCT-116 colon) [µM] | TGI (MCF7 breast) [µM]
NCCC1([N+](=O)[O-])CCNCC1 | > 100 | > 100 | > 100 | > 100 | > 100 | > 100 | > 100 | > 100 | > 100 | > 100 | > 100 | > 100 | > 100 | > 100 | > 100
Cc1ccc(N2C(=O)C(=O)N(/N=C3\C(=O)Nc4ccccc43)C2=S)cc1 | > 100 | > 100 | > 100 | > 100 | > 100 | > 100 | > 100 | > 100 | > 100 | > 100 | > 100 | > 100 | > 100 | > 100 | > 100
CCN1C(=O)CS/C1=N\NC(=O)CSc1nc2ccccc2c(=O)n1CC | > 100 | > 100 | > 100 | > 100 | > 100 | > 100 | > 100 | > 100 | > 100 | > 100 | > 100 | > 100 | > 100 | > 100 | > 100
CC(=O)N(C)SCC(NC(=O)C(Cc1ccccc1)NC(=O)OCC1c2ccccc2-c2ccccc21)C(=O)NC(Cc1ccccc1)C(=O)NC(Cc1cn(C=O)c2ccccc12)C(=O)NC(CCCCNC(=O)OCC1c2ccccc2-c2ccccc21)C(=O)NC(C(=O)NC(CSN(C)C(C)=O)C(=O)NC(C(N)=O)C(C)O)C(C)O (centres undefined) (Fmoc-F[X31]FW(For)K(Fmoc)T[X31]T-NH2; configuration not given here) | > 100 | > 100 | > 100 | > 100 | > 100 | > 100 | > 100 | > 100 | 70.2 | > 100 | > 100 | > 100 | > 100 | > 100 | > 100
C=C(CC)C[C@@H]1C[C@]2(C(=O)OC)c3[nH]c4ccccc4c3CCN2C1=O | 49.7 | 31.1 | > 100 | 36.2 | 56 |  | 66.2 | 53.6 | 38.6 | 41.3 | 36.7 | 51.9 | 76 | 29.6 | 47.2
CC(=O)NC(CO)C(=O)NC(Cc1ccc(O)cc1)C(=O)NCC(N)=O (stereo not drawn) (Ac-Ser-Tyr-Gly-NH2; configuration not given here) | > 100 | > 100 | > 100 | > 100 | > 100 | > 100 | > 100 | > 100 | > 100 | > 100 | > 100 | > 100 | > 100 | > 100 | > 100
C#CC(O)Cc1ccc(OC)c2occc12 (centres undefined) | > 100 | > 100 | > 100 | > 100 | > 100 |  | > 100 | > 100 | > 100 | > 100 | > 100 | > 100 | > 100 | > 100 | > 100
N#CCN(Cc1ccccc1)[C@@H]1CCC[C@]1(O)C#Cc1ccc2c(c1)OCO2 | 42 | 41.8 | 32.2 | 37.3 | 33.5 | 48.1 | > 100 | 36.1 | > 100 |  | 33.7 | 41.1 | 36 |  | 37.9
COC(=O)CCC(C)[C@H]1CCC2C3C(C[C@H](OC(C)=O)[C@@]21C)[C@@]1(C)CCC2(C[C@H]1C[C@H]3OC(C)=O)OOC1(CCCCC1)OO2 (some centres undefined) | > 100 | 80.4 | > 100 |  | > 100 | > 100 | 79.3 | > 100 | 25.7 | > 100 | 60.5 | > 100 | 77.3 | > 100 | > 100
CC(C)(C)N=c1n(C(C)(C)C)oc(=O)n1-c1ccccc1 | > 50 | > 50 | > 50 | > 50 | > 50 | > 50 | > 50 | > 50 | > 50 | > 50 | > 50 | > 50 | > 50 | > 50 | > 50
Cc1nc(Nc2nc3ccccc3[nH]2)[nH]c(=O)c1CCO | > 100 | > 100 | > 100 | > 100 | > 100 | > 100 | > 100 | > 100 | > 100 | > 100 | > 100 | > 100 | > 100 | > 100 | > 100
CC[C@H](C)[C@H]1NC(=O)[C@@H](NC(=O)[C@@H](CC(C)C)N(C)C(=O)C2CCCN2C(=O)[C@H](C)O)[C@@H](C)OC(=O)[C@H](Cc2ccccc2)N(C)C(=O)[C@@H]2CCCN2C(=O)[C@H](CC(C)C)NC(=O)[C@@H](C)C(=O)[C@H](C(C)C)OC(=O)C[C@@H]1O (some centres undefined) |  | 0.0134 | 0.0461 | < 0.00625 | 0.075 | > 62.5 | < 0.00625 | < 0.00625 | < 0.00625 | > 14.5 | < 0.00625 | 0.00762 | < 0.00625 | 0.00642 | 0.0641
COc1cccc(C(=O)N[C@@H]2[C@H](O)[C@@H](CO)O[C@H]2n2cnc3c(N)ncnc32)c1 | > 100 | > 100 | > 100 | > 100 | > 100 | > 100 | > 100 | > 100 | > 100 | > 100 | > 100 | > 100 | > 100 | > 100 | > 100
O=C(O)CO/N=C1/C(c2c(O)[nH]c3ccccc23)=Nc2ccccc21 | > 100 | > 100 | > 100 | > 100 | > 100 | > 100 | 74.4 | > 100 | > 100 | > 100 | > 100 | > 100 | > 100 | > 100 | > 100
